Molecules are shown by their SMILES. Activity calls are given as the source filed them. The calls are words filed in the database; no cut-off is given here.

The IC50 is the concentration that gives 50% inhibition.

For one test, the target named is T1, Tyrosinase (Agaricus bisporus) (UniProt O42713).
T1 sequence (whole entry): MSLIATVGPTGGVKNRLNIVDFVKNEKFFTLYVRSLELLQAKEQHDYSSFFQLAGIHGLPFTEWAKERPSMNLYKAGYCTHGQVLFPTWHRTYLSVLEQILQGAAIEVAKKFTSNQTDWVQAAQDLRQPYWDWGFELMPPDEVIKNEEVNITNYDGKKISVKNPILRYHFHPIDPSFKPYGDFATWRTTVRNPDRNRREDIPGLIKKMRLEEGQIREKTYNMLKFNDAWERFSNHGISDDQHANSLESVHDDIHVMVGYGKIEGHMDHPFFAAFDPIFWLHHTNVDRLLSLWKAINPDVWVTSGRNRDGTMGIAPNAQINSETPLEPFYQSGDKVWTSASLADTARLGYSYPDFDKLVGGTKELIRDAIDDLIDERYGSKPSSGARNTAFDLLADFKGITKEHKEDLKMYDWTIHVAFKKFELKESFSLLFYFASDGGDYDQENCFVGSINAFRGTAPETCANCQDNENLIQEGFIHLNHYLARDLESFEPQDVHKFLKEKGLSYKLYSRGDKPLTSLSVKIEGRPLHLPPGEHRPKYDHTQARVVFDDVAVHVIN
Kind of test: Non-competitive inhibition of mushroom tyrosinase diphenolase activity at 2 to 8 uM using L-DOPA as substrate preincubated with substrate for 30 mins followed by protein addition measured after 5 mins by Lineweaver-Burk double-reciprocal plot analysis.
For `COc1ccccc1C(=O)N1CCN(Cc2ccc(F)cc2)CC1`, the inhibition entry is “Active”.

Another test has as its target T2, Tyrosinase (Agaricus bisporus, UniProt O42713).
T2 sequence (O42713 whole entry): T1 sequence (whole entry)
As to the kind of experiment: Inhibition of mushroom tyrosinase diphenolase activity using L-DOPA as substrate preincubated with substrate for 10 mins followed by protein addition measured after 5 mins by spectrophotometric method.
In turn, `CC(C)C(=O)N1CCN(Cc2ccc(F)cc2)CC1` returned an IC50 of 30.9 µM.
The same measure, in the same setting: for `Cc1cccc(C(=O)N2CCN(Cc3ccc(F)cc3)CC2)c1` the value was 174 µM.
`O=C(c1ccccc1)N1CCC(Cc2ccc(F)cc2)CC1` yielded an IC50 of 19.5 µM.
Still for that read-out and setting: for `CC(=O)N1CCC(Cc2ccc(F)cc2)CC1` the value was 25.1 µM.
In turn, `O=C(c1cccc(F)c1)N1CCN(Cc2ccc(F)cc2)CC1` returned an IC50 of 54.7 µM.
The same measure, in the same setting: for `Fc1ccc(CN2CCNCC2)cc1` the value was 85.5 µM; for `CCC(=O)N1CCC(Cc2ccc(F)cc2)CC1`, 24.1 µM.
As for `COc1ccc(C(=O)N2CCN(Cc3ccc(F)cc3)CC2)cc1`, the IC50 worked out at 9.14 µM.
On the same count and under the same terms, for `O=C(c1ccccc1O)N1CCN(Cc2ccc(F)cc2)CC1` the value was 7.06 µM.
The same measure, in the same setting: for `O=C(c1ccc(F)cc1)N1CCN(Cc2ccc(F)cc2)CC1` the value was 7.77 µM; for `CC(C)C(=O)N1CCC(Cc2ccc(F)cc2)CC1`, 35.3 µM; for `CCC(=O)N1CCN(Cc2ccc(F)cc2)CC1`, 51.1 µM.
Same read-out and setting: for `O=C(c1ccccc1F)N1CCN(Cc2ccc(F)cc2)CC1` the value was 3.75 µM.
Molecule `O=C(c1ccccc1)N1CCN(Cc2ccc(F)cc2)CC1` showed an IC50 of 13.3 µM.
On the same count and under the same terms, for `Cc1ccc(C(=O)N2CCN(Cc3ccc(F)cc3)CC2)cc1` the value was 33.1 µM; for `COc1cccc(C(=O)N2CCN(Cc3ccc(F)cc3)CC2)c1`, 27 µM.
Same read-out and setting: for `COc1ccccc1C(=O)N1CCN(Cc2ccc(F)cc2)CC1` the value was 2.03 µM.
Same read-out and setting: for `O=C(c1ccc(O)cc1)N1CCN(Cc2ccc(F)cc2)CC1` the value was 27.4 µM; for `Cc1ccccc1C(=O)N1CCN(Cc2ccc(F)cc2)CC1`, 5.25 µM; for `CC(=O)N1CCN(Cc2ccc(F)cc2)CC1`, 45.9 µM.
`O=C(c1cccc(O)c1)N1CCN(Cc2ccc(F)cc2)CC1`: the IC50 was 12.6 µM.

The values are drawn from ChEMBL document CHEMBL4177754, “Targeting Tyrosinase: Development and Structural Insights of Novel Inhibitors Bearing Arylpiperidine and Arylpiperazine Fragments” (J Med Chem, 2018).
